Among the data in patent US20250145585A1, “HETEROCYCLIC INHIBITORS OF IGF-1R FOR TREATMENT OF DISEASE” (HORIZON THERAPEUTICS IRELAND DAC, priority 2023, published 2025) are IC50 values, retold here.

For this experiment, the target named is T1, IGF-1R (Homo sapiens, UniProt P08069).
T1 construct: expressed in transfected cells
T1 sequence (P08069 31-1367): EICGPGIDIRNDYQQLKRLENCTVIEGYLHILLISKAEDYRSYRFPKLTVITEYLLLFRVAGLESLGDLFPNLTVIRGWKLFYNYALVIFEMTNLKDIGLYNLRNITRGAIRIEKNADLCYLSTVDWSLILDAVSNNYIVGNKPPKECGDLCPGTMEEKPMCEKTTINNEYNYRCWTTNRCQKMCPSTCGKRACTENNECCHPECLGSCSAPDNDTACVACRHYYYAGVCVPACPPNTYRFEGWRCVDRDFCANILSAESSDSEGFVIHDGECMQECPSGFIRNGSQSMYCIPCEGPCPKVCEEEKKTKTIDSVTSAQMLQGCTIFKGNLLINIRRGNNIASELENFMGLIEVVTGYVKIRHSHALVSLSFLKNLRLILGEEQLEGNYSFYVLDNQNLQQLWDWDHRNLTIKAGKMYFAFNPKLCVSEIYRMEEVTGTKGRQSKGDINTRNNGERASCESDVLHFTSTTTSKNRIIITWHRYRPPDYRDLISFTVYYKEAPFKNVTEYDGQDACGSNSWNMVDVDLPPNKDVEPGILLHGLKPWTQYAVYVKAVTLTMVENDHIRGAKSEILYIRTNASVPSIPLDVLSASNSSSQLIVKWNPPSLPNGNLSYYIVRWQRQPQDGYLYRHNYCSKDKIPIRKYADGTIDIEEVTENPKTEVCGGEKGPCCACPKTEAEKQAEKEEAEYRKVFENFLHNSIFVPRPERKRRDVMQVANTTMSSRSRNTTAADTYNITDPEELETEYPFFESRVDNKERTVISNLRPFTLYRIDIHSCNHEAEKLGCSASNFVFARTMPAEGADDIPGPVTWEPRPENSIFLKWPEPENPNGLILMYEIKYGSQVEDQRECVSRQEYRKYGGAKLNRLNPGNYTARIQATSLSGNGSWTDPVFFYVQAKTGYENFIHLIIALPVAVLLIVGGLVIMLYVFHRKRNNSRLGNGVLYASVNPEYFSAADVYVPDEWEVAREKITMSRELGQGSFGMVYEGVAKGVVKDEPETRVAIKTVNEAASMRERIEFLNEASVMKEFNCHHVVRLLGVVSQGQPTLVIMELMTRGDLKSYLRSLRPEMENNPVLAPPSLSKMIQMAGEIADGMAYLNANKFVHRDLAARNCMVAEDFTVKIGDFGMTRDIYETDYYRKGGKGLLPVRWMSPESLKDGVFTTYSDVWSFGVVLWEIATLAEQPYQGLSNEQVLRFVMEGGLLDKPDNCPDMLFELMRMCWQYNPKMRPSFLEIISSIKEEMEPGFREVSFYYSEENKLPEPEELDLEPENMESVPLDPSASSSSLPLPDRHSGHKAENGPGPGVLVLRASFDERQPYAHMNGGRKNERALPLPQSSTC
Briefly: Example B-1: IGF-1R Assay (PC3 cells stimulated with IGF1, AlphaLISA on cell lysates). In kind it is cell-based. Conditions: compound two hours, IGF1 200 ng/mL for 30 min, read-out: IC50, Biological Activity against IGF-1R (Table B1). The protocol: 50K PC3 cells were seeded on day 1 in 50 μL of media in 96-well plate and incubated overnight at 37° C., 5% CO2. On day 2, all cells were expected to be at 80-90% confluency. Cells were starved for two hours by changing the media to 90 μL of EMEM serum-free media and incubated for 2 hours. Next, cells were treated with 10 μL of 10× concentrated and 3× serially diluted compounds for two hours. It makes 1× of compounds in 100 μL media. This was followed by stimulation of cells with 11×IGF1 for 30 min in 10 μL of serum-free EMEM media at the final concentration of 200 ng/mL.
The media was removed and replaced by 50 μL of 1× lysis buffer from the AlphaLISA kit (with 1× of cOmplete™ protease inhibitor). The plates were sealed, and cells were allowed to lyse for 10 min in the shaker before storing the plate at −20° C. until used. The AlphaLISA assay with processed cell lysates were performed as described in the protocol. Briefly, 10 μL of the undiluted sample were loaded to 384 well Optiplates and 5 μL of the acceptor mix (as described in the AlphaLISA kit) was added to each well. The plates were sealed and briefly vortexed followed by the incubation at RT for 3 hours. In the dark, 5 μL of donor mix was added to each well. All plates were sealed and stored at RT overnight. The plates were read in EnVision reader using standard AlphaLISA settings.
Compound activity was analyzed using CBIS data analysis suite (Cheminnovation, CA). Percentage inhibition was calculated using the following formula: % I-hibition=100%×(1−(mea−RLU of test sample−mean RLU of vehicle control)/(mean-RLU of EC80 control−mean RLU of vehicle control)). The activity for representative examples of the invention is shown in the following table, wherein A: IC50≤500 nM; B: 500 nM<IC50≤2 μM; C: 2 μM<IC50≤10 μM; D: IC50>10 μM.
In the case of `CC(C)Nc1nccc(CN2C(=O)N(c3ccc(SC(F)(F)F)cc3)C(=O)C2(C)C)c1F` [Compound 382, 1-((3-fluoro-2-(isopropylamino)pyridin-4-yl)methyl)-5,5-dimethyl-3-(4-((trifluoromethyl)thio)phenyl) imidazolidine-2,4-dione], the IC50 was in the range of 2000 to 10000 nM. As for `CC(C)(C)c1ccc(N2C(=O)N(Cc3ccnc(NC45CC(C4)C5)c3)C(C)(C)C2=O)cc1` [Compound 276, 1-((2-(bicyclo[1.1.1]pentan-1-ylamino)pyridin-4-yl)methyl)-3-(4-(tert-butyl)phenyl)-5,5-dimethylimidazolidine-2,4-dione], the IC50 was not above 500 nM. The value for `CC1(C)C(=O)N(c2ccc(SC(F)(F)F)cc2)C(=O)N1Cc1ccnc(NC(=O)Nc2ccc(Cl)cc2)c1` [Compound 377, 1-(4-chlorophenyl)-3-(4-((5,5-dimethyl-2,4-dioxo-3-(4-((trifluoromethyl)thio)phenyl)imidazolidin-1-yl)methyl)pyridin-2-yl)urea] was 500 to 2000 nM; that for `CC1(C)C(=O)N(c2ccc(SC(F)(F)F)cc2)C(=O)N1Cc1ccnc(Nc2ncccn2)c1` [Compound 399, 5,5-dimethyl-1-((2-(pyrimidin-2-ylamino)pyridin-4-yl)methyl)-3-(4-((trifluoromethyl)thio)phenyl) imidazolidine-2,4-dione] was not above 500 nM; that for `CC1(C)C(=O)N(c2ccc(SC(F)(F)F)cc2)C(=O)N1Cc1ccnc2[nH]c(C3CC3)cc12` [Compound 15, 1-((2-cyclopropyl-1H-pyrrolo[2,3-b]pyridin-4-yl)methyl)-5,5-dimethyl-3-(4-((trifluoromethyl)thio)phenyl)imidazolidine-2,4-dione] was more than 10000 nM. For `CN1CC(Oc2ccc(Nc3cc(CN4C(=O)N(c5ccc(SC(F)(F)F)cc5)C(=O)C4(C)C)ccn3)cc2)C1` [Compound 349, 5,5-dimethyl-1-((2-((4-((1-methylazetidin-3-yl)oxy)phenyl)amino)pyridin-4-yl)methyl)-3-(4-((trifluoromethyl)thio)phenyl) imidazolidine-2,4-dione], the IC50 was not above 500 nM. Under `CC(C)Nc1cc(CN2C(=O)N(c3ccc(C4(C)CC(F)(F)C4)cc3)C(=O)C2(C)C)ccn1` [Compound 116, 3-(4-(3,3-difluoro-1-methylcyclobutyl)phenyl)-1-((2-(isopropylamino)pyridin-4-yl)methyl)-5,5-dimethylimidazolidine-2,4-dione] stands not above 500 nM; under `CC1(C)C(=O)N(c2ccc(S(F)(F)(F)(F)F)cc2)C(=O)N1Cc1ccnc(N)c1` [Compound 179, 1-((2-aminopyridin-4-yl)methyl)-5,5-dimethyl-3-(4-(pentafluoro-16-sulfanyl)phenyl)imidazolidine-2,4-dione], not above 500 nM; under `CC1(C)C(=O)N(c2ccc(SC(F)(F)F)cc2)C(=O)N1Cc1ccnc(NC(=O)c2cccnc2)c1` [Compound 360, N-(4-((5,5-dimethyl-2,4-dioxo-3-(4-((trifluoromethyl)thio)phenyl)imidazolidin-1-yl)methyl)pyridin-2-yl)nicotinamide], not above 500 nM.

For `CC1(C)CNc2ncc(CN3C(=O)N(c4ccc(SC(F)(F)F)cc4)C(=O)C3(C)C)cc21` [Compound 405, 1-((3,3-dimethyl-2,3-dihydro-1H-pyrrolo[2,3-b]pyridin-5-yl)methyl)-5,5-dimethyl-3-(4-((trifluoromethyl)thio)phenyl) imidazolidine-2,4-dione], the IC50 fell in the range of 2000 to 10000 nM. Under `CC1(C)C(=O)N(c2ccc(SC(F)(F)F)cc2)C(=O)N1Cc1ccnc(Nc2ncc[nH]2)c1` [Compound 352, 1-((2-((1H-imidazol-2-yl)amino)pyridin-4-yl)methyl)-5,5-dimethyl-3-(4-((trifluoromethyl)thio)phenyl) imidazolidine-2,4-dione] stands not above 500 nM; under `CC(C)(C)c1ccc(N2C(=O)N(Cc3ccnc4[nH]ccc34)C(C)(C)C2=O)cc1` [Compound 4], not above 500 nM. Under `CC1(C)C(=O)N(c2ccc([S+]([O-])C(F)(F)F)cc2)C(=O)N1Cc1ccnc(N)c1` (stereo not drawn) [Compound 393, 1-((2-aminopyridin-4-yl)methyl)-5,5-dimethyl-3-(4-((trifluoromethyl)sulfinyl)phenyl) imidazolidine-2,4-dione] stands not above 500 nM; under `Cc1c[nH]c2ncc(CN3C(=O)N(c4ccc(SC(F)(F)F)cc4)C(=O)C3(C)C)cc12` [Compound 406, 5,5-dimethyl-1-((3-methyl-1H-pyrrolo[2,3-b]pyridin-5-yl)methyl)-3-(4-((trifluoromethyl)thio)phenyl) imidazolidine-2,4-dione], 2000 to 10000 nM. The value for “5,5-dimethyl-1-((2-((2-methyl- 3-oxoisoindolin-5- yl)amino)pyridin-4-yl)methyl)- 3-(4- ((trifluoromethyl)thio)phenyl) amidazolidine-2,4-dione [Compound 272]” was not above 500 nM; that for `CC1(C)C(=O)N(c2ccc(SC(F)(F)F)cc2)C(=O)N1Cc1ccnc(N)c1F` [Compound 380, 1-((2-amino-3-fluoropyridin-4-yl)methyl)-5,5-dimethyl-3-(4-((trifluoromethyl)thio)phenyl) imidazolidine-2,4-dione] was not above 500 nM; that for `CC1(C)C(=O)N(c2ccc(SC(F)(F)F)cc2)C(=O)N1Cc1ccnc(NCc2ncc[nH]2)c1` [Compound 312, 1-((2-(((1H-imidazol-2-yl)methyl)amino)pyridin-4-yl)methyl)-5,5-dimethyl-3-(4-((trifluoromethyl)thio)phenyl) imidazolidine-2,4-dione] was 500 to 2000 nM. With `CN(C)C(=O)c1cncc(Nc2cc(CN3C(=O)N(c4ccc(SC(F)(F)F)cc4)C(=O)C3(C)C)ccn2)c1` [Compound 359, 5-((4-((5,5-dimethyl-2,4-dioxo-3-(4-((trifluoromethyl)thio)phenyl)imidazolidin-1-yl)methyl)pyridin-2-yl)amino)-N,N-dimethylnicotinamide], the IC50 was not above 500 nM. The value for `CC1(C)C(=O)N(c2ccc(C3CCCCC3)cc2)C(=O)N1Cc1ccnc(N)c1` [Compound 87, 1-((2-aminopyridin-4-yl)methyl)-3-(4-cyclohexylphenyl)-5,5-dimethylimidazolidine-2,4-dione] was 500 to 2000 nM; that for `Cc1ccc(NC(=O)Nc2cc(CN3C(=O)N(c4ccc(SC(F)(F)F)cc4)C(=O)C3(C)C)ccn2)cc1` [Compound 371, 1-(4-((5,5-dimethyl-2,4-dioxo-3-(4-((trifluoromethyl)thio)phenyl)imidazolidin-1-yl)methyl)pyridin-2-yl)-3-(p-tolyl)urea] was not above 500 nM. The value for `CC(C)Nc1cc(CN2C(=O)N(c3ccc(C4(C(F)(F)F)CCC4)cc3)C(=O)C2(C)C)ccn1` [Compound 115, 1-((2-(isopropylamino)pyridin-4-yl)methyl)-5,5-dimethyl-3-(4-(1-(trifluoromethyl)cyclobutyl)phenyl) imidazolidine-2,4-dione] was not above 500 nM; that for `CCC(C)Nc1cc(CN2C(=O)N(c3ccc(SC(F)(F)F)cc3)C(=O)C2(C)C)ccn1` (stereo not drawn) [Compound 381, 1-((2-(sec-butylamino)pyridin-4-yl)methyl)-5,5-dimethyl-3-(4-((trifluoromethyl)thio)phenyl)imidazolidine-2,4-dione] was not above 500 nM.

For the compound `CC1(C)C(=O)N(c2ccc(SC(F)(F)F)cc2)C(=O)N1Cc1ccnc(NC2CCC2)c1` [Compound 378, 1-((2-(cyclobutylamino)pyridin-4-yl)methyl)-5,5-dimethyl-3-(4-((trifluoromethyl)thio)phenyl) imidazolidine-2,4-dione], the concentration for half-maximal inhibition (IC50) was not above 500 nM.

Regarding `CC1(C)C(=O)N(c2ccc(CC(F)(F)F)cc2)C(=O)N1Cc1ccnc(N)c1` [Compound 94, 1-((2-aminopyridin-4-yl)methyl)-5,5-dimethyl-3-(4-(2,2,2-trifluoroethyl)phenyl)imidazolidine-2,4-dione], the IC50 is not above 500 nM. For `CC1(C)C(=O)N(c2ccc(SC(F)(F)F)cc2)C(=O)N1Cc1ccnc(NCC(F)F)c1` [Compound 315, 1-((2-((2,2-difluoroethyl)amino)pyridin-4-yl)methyl)-5,5-dimethyl-3-(4-((trifluoromethyl)thio)phenyl) imidazolidine-2,4-dione], the IC50 is not above 500 nM. With `CC1(C)C(=O)N(c2ccc(C(C)(C)C(F)(F)F)cc2)C(=O)N1Cc1ccnc(N)c1` [Compound 95, 1-((2-aminopyridin-4-yl)methyl)-5,5-dimethyl-3-(4-(1,1,1-trifluoro-2-methylpropan-2-yl)phenyl)imidazolidine-2,4-dione], the IC50 is not above 500 nM.

Take `CC1(C)C(=O)N(c2ccc3c(C(F)(F)F)n[nH]c3c2)C(=O)N1Cc1ccnc(N)c1` [Compound 254, 1-((2-aminopyridin-4-yl)methyl)-5,5-dimethyl-3-(3-(trifluoromethyl)-1H-indazol-6-yl)imidazolidine-2,4-dione]: the IC50 is 500 to 2000 nM.
